In ChEMBL document CHEMBL5053489, “Effects of Eugenol and Dehydrodieugenol B from Nectandra leucantha against Lipopolysaccharide (LPS)-Induced Experimental Acute Lung Inflammation” (J Nat Prod, 2021) one finds inhibition and Activity data, which are given here for two compounds.

Activity calls are given as the source filed them. The rule behind the calls is not given here.

The target of series [1] is c-Jun N-terminal kinase (Mus musculus) (UniProt Q91Y86+Q9WTU6+Q61831). The series is described as follows: Inhibition of LPS-induced JNK phosphorylation in BALB/c mouse at 30 mg/kg administered 6 hrs after LPS stimulation by western blot analysis. Format: organism-based. A general note: In western blotting, separated proteins are transferred to a membrane and probed.
c-Jun N-terminal kinase (Mus musculus), sequence (Q61831 whole entry, looked up): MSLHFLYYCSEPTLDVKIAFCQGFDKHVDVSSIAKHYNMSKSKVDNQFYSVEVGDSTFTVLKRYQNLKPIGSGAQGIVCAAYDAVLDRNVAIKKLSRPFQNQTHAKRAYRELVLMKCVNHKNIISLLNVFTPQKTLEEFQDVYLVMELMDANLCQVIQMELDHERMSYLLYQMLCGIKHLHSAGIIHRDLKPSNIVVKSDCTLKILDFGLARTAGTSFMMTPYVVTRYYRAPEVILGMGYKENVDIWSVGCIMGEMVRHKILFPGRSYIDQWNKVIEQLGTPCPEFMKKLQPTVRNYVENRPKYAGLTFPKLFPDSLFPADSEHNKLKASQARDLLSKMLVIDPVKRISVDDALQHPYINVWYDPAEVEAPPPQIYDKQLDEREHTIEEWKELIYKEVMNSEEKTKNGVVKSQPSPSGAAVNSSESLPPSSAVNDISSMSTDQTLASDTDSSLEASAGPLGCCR
c-Jun N-terminal kinase (Mus musculus), sequence (Q91Y86 whole entry, looked up): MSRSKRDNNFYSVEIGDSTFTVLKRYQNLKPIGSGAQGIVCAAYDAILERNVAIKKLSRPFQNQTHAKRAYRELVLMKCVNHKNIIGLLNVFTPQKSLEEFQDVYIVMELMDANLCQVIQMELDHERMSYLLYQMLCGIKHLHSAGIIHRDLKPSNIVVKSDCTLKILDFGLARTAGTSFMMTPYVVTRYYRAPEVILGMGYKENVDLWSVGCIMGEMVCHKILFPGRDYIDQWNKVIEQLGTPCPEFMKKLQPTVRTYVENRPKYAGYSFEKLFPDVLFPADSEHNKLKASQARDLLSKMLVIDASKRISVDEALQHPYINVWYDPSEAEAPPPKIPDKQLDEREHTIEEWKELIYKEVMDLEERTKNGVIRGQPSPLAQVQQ
c-Jun N-terminal kinase (Mus musculus), sequence (Q9WTU6 whole entry, looked up): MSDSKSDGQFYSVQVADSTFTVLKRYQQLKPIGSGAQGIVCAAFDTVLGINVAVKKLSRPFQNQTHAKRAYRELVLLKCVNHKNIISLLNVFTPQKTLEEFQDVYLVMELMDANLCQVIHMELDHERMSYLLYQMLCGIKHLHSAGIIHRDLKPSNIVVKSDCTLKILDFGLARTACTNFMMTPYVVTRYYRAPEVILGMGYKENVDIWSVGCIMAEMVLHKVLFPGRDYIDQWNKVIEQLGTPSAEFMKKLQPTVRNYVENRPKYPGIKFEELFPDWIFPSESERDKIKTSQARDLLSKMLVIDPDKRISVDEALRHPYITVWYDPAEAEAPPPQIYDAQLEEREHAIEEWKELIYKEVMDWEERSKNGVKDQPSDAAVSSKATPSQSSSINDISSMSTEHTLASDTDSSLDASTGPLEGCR
Series [2] concerns Mus musculus. The series can be described thus: Antiinflammatory activity in BALB/c mouse model of LPS-induced acute respiratory distress syndrome assessed as reduction in neutrophils in BALF at 20 to 60 mg/kg administered 6 hrs after LPS-stimulation. Format: functional, organism-based. Particulars: dose 20-60 mg/kg.
For series [3], the system named is Mus musculus. The series can be described thus: Toxicity in BALB/c mouse model of LPS-induced acute respiratory distress syndrome assessed as reduction in body mass loss percentage at 30 mg/kg administered 6 hrs after LPS-stimulation. Format: organism-based. As to conditions: in vivo.
Series [4] has as its system Mus musculus. The series can be described thus: Antiinflammatory activity in BALB/c mouse model of LPS-induced acute respiratory distress syndrome assessed as reduction in pulmonary edema by measuring wet/dry weight ratio at 30 mg/kg administered 6 hrs after LPS-stimulation and measured after […]. Format: functional, organism-based.
For series [5], the system named is Mus musculus. The series can be described thus: Antiinflammatory activity in BALB/c mouse model of LPS-induced acute respiratory distress syndrome assessed as reduction in leukocytes in peripheral blood at 30 mg/kg administered 6 hrs after LPS-stimulation and measured after 24 hrs by Neubauer counting chamber based analysis. Format: functional, organism-based.

Series [6] deals with Mus musculus. The series can be described thus: Antiinflammatory activity in BALB/c mouse model of LPS-induced acute respiratory distress syndrome assessed as reduction in neutrophils in peripheral blood at 30 mg/kg administered 6 hrs after LPS-stimulation and measured after 24 hrs by Diff-quick stain based analysis. Format: functional, organism-based.
The subject of series [7] is Mus musculus. The series can be described thus: Antiinflammatory activity in BALB/c mouse model of LPS-induced acute respiratory distress syndrome assessed as reduction in monocytes in peripheral blood at 30 mg/kg administered 6 hrs after LPS-stimulation and measured after 24 hrs by Diff-quick stain based analysis. Format: functional, organism-based.
For series [8], the system named is Mus musculus. The series is described as follows: Antiinflammatory activity in BALB/c mouse model of LPS-induced acute respiratory distress syndrome assessed as reduction in total inflammatory cells in BALF at 30 mg/kg administered 6 hrs after LPS-stimulation by Diff-quick stain based analysis. Format: functional, organism-based.
For series [9], the system named is Mus musculus. The series is described as follows: Antiinflammatory activity in BALB/c mouse model of LPS-induced acute respiratory distress syndrome assessed as reduction in macrophages in BALF at 30 mg/kg administered 6 hrs after LPS-stimulation by Diff-quick stain based analysis. Format: functional, organism-based.
The test system of series [10] is Mus musculus. The series is described as follows: Antiinflammatory activity in BALB/c mouse model of LPS-induced acute respiratory distress syndrome assessed as reduction in neutrophils in BALF at 30 mg/kg administered 6 hrs after LPS-stimulation by Diff-quick stain based analysis. Format: functional, organism-based.
In series [11] the test system is Mus musculus. The series can be described thus: Antiinflammatory activity in BALB/c mouse model of LPS-induced acute respiratory distress syndrome assessed as reduction in IL-6 level in BALF at 30 mg/kg administered 6 hrs after LPS-stimulation by ELISA. Format: functional, organism-based. A general note: ELISA stands for enzyme-linked immunosorbent assay.
In series [12] the test system is Mus musculus. The series is described as follows: Antiinflammatory activity in BALB/c mouse model of LPS-induced acute respiratory distress syndrome assessed as reduction in IL-1beta level in BALF at 30 mg/kg administered 6 hrs after LPS-stimulation by ELISA. Format: functional, organism-based.
The subject of series [13] is Mus musculus. The series is described as follows: Antiinflammatory activity in BALB/c mouse model of LPS-induced acute respiratory distress syndrome assessed as reduction in TNF-alpha level in BALF at 30 mg/kg administered 6 hrs after LPS-stimulation by ELISA. Format: functional, organism-based.
Series [14] relates to Mus musculus. The series can be described thus: Antiinflammatory activity in BALB/c mouse model of LPS-induced acute respiratory distress syndrome assessed as reduction in polymorphonuclear cells in alveolar septa at 30 mg/kg administered 6 hrs after LPS-stimulation by pointing-count technique. Format: functional, organism-based.
Series [15] has as its system Mus musculus. The series can be described thus: Antiinflammatory activity in BALB/c mouse model of LPS-induced acute respiratory distress syndrome assessed as reduction in iNOS expression in alveolar septa at 30 mg/kg administered 6 hrs after LPS-stimulation and measured after 24 hrs by pointing-count technique based immunohistochemistry analysis. Format: functional, organism-based.

Series [16] relates to Mus musculus. The series can be described thus: Antiinflammatory activity in BALB/c mouse model of LPS-induced acute respiratory distress syndrome assessed as reduction in 9-iso-PGF2alpha expression in alveolar septa at 30 mg/kg administered 6 hrs after LPS-stimulation and measured after 24 hrs by pointing-count technique based immunohistochemistry analysis. Format: functional, organism-based.

Series [17] relates to Mus musculus. The series can be described thus: Antiinflammatory activity in BALB/c mouse model of LPS-induced acute respiratory distress syndrome assessed as reduction in density of MMP-9 positive cells in lung parenchyma at 30 mg/kg administered 6 hrs after LPS-stimulation by pointing-count technique based immunohistochemistry analysis. Format: functional, organism-based.

Series [18] deals with Mus musculus. The series is described as follows: Antiinflammatory activity in BALB/c mouse model of LPS-induced acute respiratory distress syndrome assessed as reduction in density of TIMP-1 positive cells in lung parenchyma at 30 mg/kg administered 6 hrs after LPS-stimulation by pointing-count technique based immunohistochemistry analysis. Format: functional, organism-based.

Series [19] concerns Mus musculus. The series is described as follows: Antiinflammatory activity in BALB/c mouse model of LPS-induced acute respiratory distress syndrome assessed as reduction in collagen deposition in lung parenchyma at 30 mg/kg administered 6 hrs after LPS-stimulation and measured after 24 hrs by pointing-count technique based immunohistochemistry analysis. Format: functional, organism-based.

For series [20], the system named is Mus musculus. The series is described as follows: Antiinflammatory activity in BALB/c mouse model of LPS-induced acute respiratory distress syndrome assessed as improvement in lung mechanics by measuring respiratory system elastance at 30 mg/kg administered 6 hrs after LPS-stimulation and measured after 24 hrs by forced oscillation technique. Format: functional, organism-based.

Series [21] concerns Mus musculus. The series is described as follows: Antiinflammatory activity in BALB/c mouse model of LPS-induced acute respiratory distress syndrome assessed as improvement in lung mechanics by measuring tissue damping at 30 mg/kg administered 6 hrs after LPS-stimulation and measured after 24 hrs by forced oscillation technique. Format: functional, organism-based.
For series [22], the system named is Mus musculus. The series can be described thus: Antiinflammatory activity in BALB/c mouse model of LPS-induced acute respiratory distress syndrome assessed as improvement in lung mechanics by measuring tissue elastance at 30 mg/kg administered 6 hrs after LPS-stimulation and measured after 24 hrs by forced oscillation technique. Format: functional, organism-based.

For series [23], the system named is Mus musculus. The series is described as follows: Antiinflammatory activity in BALB/c mouse model of LPS-induced acute respiratory distress syndrome assessed as improvement in lung mechanics by measuring respiratory system resistance at 30 mg/kg administered 6 hrs after LPS-stimulation and measured after 24 hrs by forced oscillation technique. Format: functional, organism-based.

Series [24] has as its system Mus musculus. The series can be described thus: Antiinflammatory activity in BALB/c mouse model of LPS-induced acute respiratory distress syndrome assessed as reduction in lymphocytes in peripheral blood at 30 mg/kg administered 6 hrs after LPS-stimulation and measured after 24 hrs by Diff-quick stain based analysis. Format: functional, organism-based.
Series [25] relates to Mus musculus. The series can be described thus: Antiinflammatory activity in BALB/c mouse model of LPS-induced acute respiratory distress syndrome assessed as reduction in inflammatory cells in alveolar septa at 30 mg/kg administered 6 hrs after LPS-stimulation. Format: functional, organism-based.

As for `C=CCc1ccc(Oc2cc(CC=C)cc(OC)c2O)c(OC)c1`, the inhibition result in series [1] is “Active”.

With `C=CCc1ccc(O)c(OC)c1` [EUGENOL], the outcome in the series with Mus musculus [2], in the series with Mus musculus [4], in the series with Mus musculus [5], with Mus musculus [6], in the series on Mus musculus [7] and in the series with Mus musculus [8] was Active. In addition, the result in the series on Mus musculus [9], in the series on Mus musculus [10], in the series with Mus musculus [11], with Mus musculus [12], with Mus musculus [14] and in the series on Mus musculus [15] was Active. In addition, the result in the series on Mus musculus [16], in the series with Mus musculus [17], with Mus musculus [18], in the series on Mus musculus [19], in the series on Mus musculus [20] and in the series on Mus musculus [21] was Active. In addition, the outcome in the series on Mus musculus [22], with Mus musculus [24] and with Mus musculus [25] was Active. The Activity result with Mus musculus [3] is “Non-Toxic”. Besides, the result in the series on Mus musculus [13] and in the series on Mus musculus [23] was inactive. Also, the inhibition entry in series [1] was “Active”.
